Test results: paper PMC9168369 (Frontiers in Pharmacology, 2022)
Where two headings read alike, the source gives them in different places.

Legend:
Hela cells = assay: Cell anti-proliferative activity, CCK8 assay; assay type: cell-based; conditions: Homo sapiens, CCK8, 48 h, 0.25 to 16.0 μM
Protocol: Cell anti-proliferative activity to Hela was evaluated by the CCK8 assay. The Hela cells were seeded at a density of 2,000 cells per well into a 96-well microplate in 100 μl of the growth medium. Cells were incubated at 37°C and 5% CO2 overnight. The next day, 100 μl per well of the diluted inhibitor in the growth medium was added with the final concentration from 0.25 to 16.0 μM. The cells were treated with DMSO as control. A series of dilutions were made in 0.1% DMSO in the assay medium so that the final concentration of DMSO was 0.1% in all of treatments. Cells were incubated at 37°C and 5% CO2 for 48 h. Then, 10 μl of CCK8 was added to each well. The plates were incubated at 37°C for 2 h, after that, the plates were recorded by measuring the absorbance at 450 nm with the reference wavelength of 630 nm using an EnVision Multilabel Reader (PerkinElmer). All assays were conducted with three parallel samples and three repetitions.

IDO1 = conditions: read-out: average IC50, cellular assay; ref Yue et al., 2017; Komiya and Huang, 2018; cited from earlier work
[1] = design: method as in Ma et al. (2019); conditions: ref Ma et al. (2019); cited from earlier work
[2] = tested on: SHEE cells (human immortalized esophageal epithelial cell line); assay: Toxicity to SHEE, MTT assay; assay type: cell-based; conditions: 48 h, read-out: IC50 SHEE
Protocol: Toxicity to SHEE was evaluated by using the MTT assay. The SHEE cells were seeded in 96-well plates with densities of 2,200–2,500 cells/well in 100 μl. One day after seeding, the concentration of the test compounds being between 0 and 50 μM, 0.1% DMSO were added to the cells as control. Approximately 2,200–2,500 transfected cells in 100 μl were incubated in quintuplicate in 96-well plates. After 48 h, MTT was added and incubated in the plate for 1–4 h in the incubator. The absorbance at 490 nm was measured using a microplate reader (Thermo).

human IDO1 = target: T1, human IDO1 (Homo sapiens, UniProt P14902); assay: Hela cell based IDO1 assay (kynurenine readout, IFN-γ induced); conditions: Hela cells, human IFN-γ 100 ng/ml, 18 h
T1 construct: Hela cell was selected because of its expression in native human IDO1 induced with IFNγ; endogenous in cells; host or cells: Hela cells (ATCC), induced with human IFN-γ 100 ng/ml
Protocol: To perform the Hela cell based IDO1 assay, Hela cells were seeded at 50,000 cells per well into a 96-well microplate in 100 μl of DMEM complete growth medium overnight. The next day, 100 μl of the diluted inhibitor was added into each well in the growth medium, then human IFN-γ was added with a final concentration of 100 ng/ml. Cells were incubated for 18 h. […] The plate was incubated at 50°C for 30 min to hydrolyze N-formyl kynurenine produced by IDO to kynurenine. The plate was then centrifuged at 2,500 rpm for 10 min to remove sediments. 100 μl of supernatant per well was transferred to another 96-well plate and mixed with 100 μl of 2% (w/v) 4-(dimethylamino) benzaldehyde in acetic acid. The plate was incubated at room temperature for 10 min, the yellow color derived from kynurenine was recorded by measuring the absorbance at 480 nm using a microplate reader (PerkinElmer, United States).

T1 sequence (P14902 whole entry): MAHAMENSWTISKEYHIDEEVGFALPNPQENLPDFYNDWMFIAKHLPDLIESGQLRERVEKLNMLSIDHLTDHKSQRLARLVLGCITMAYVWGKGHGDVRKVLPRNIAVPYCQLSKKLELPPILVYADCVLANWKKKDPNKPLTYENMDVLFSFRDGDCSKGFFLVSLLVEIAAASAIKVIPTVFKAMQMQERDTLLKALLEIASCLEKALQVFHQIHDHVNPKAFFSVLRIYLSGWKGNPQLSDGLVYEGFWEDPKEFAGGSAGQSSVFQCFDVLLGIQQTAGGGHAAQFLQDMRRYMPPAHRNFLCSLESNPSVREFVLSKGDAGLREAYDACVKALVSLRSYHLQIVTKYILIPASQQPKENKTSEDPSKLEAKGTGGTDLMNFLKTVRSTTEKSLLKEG

Q: For `COCCOc1cc2ncnc(Nc3cccc(-c4cn(-c5ccccc5)nn4)c3)c2cc1OCCOC` [compound a, [6,7-Bis-(2-methoxy-ethoxy)-quinazolin-4-yl]-[3-(1-phenyl-1H-[1,2,3]triazol-4-yl)-phenyl]-amine], which IC50 (Hela cells) is on record?
A: > 16 µM

Q: What does the source list for `O[C@H](C[C@H]1c2c(F)cccc2-c2cncn21)[C@H]1CC[C@H](O)CC1` [Navoximod]?
A: absorption [1]: quickly absorbed; tolerability [1]: well tolerated

Q: For `C#Cc1cccc(Nc2ncnc3cc(OCCOC)c(OCCOC)cc23)c1` [Erlotinib, reference compound], which IC50 (Hela cells) is on record?
A: > 16 µM

Q: And the IC50 [2]?
A: 21 ± 2.11 µM

Q: Which IC50 (human IDO1) does the source give for `COCCOc1cc2ncnc(Nc3cccc(-c4cn(Cc5ccccc5I)nn4)c3)c2cc1OCCOC` [compound d, [6,7-Bis-(2-methoxy-ethoxy)-quinazolin-4-yl]-{3-[1-(2-iodo-benzyl)-1H-[1,2,3]triazol-4-yl]-phenyl}-amine] here?
A: 0.4 ± 0.14 µM

Q: And the melting point?
A: 93 to 96 °C

Q: Which IC50 (Hela cells) does the source give for `COCCOc1cc2ncnc(Nc3cccc(-c4cn(Cc5ccccc5)nn4)c3)c2cc1OCCOC` [compound b, N-(3-(1-Benzyl-1H-1,2,3-triazol-4-yl)phenyl)-6,7-bis(2-methoxyethoxy)quinazolin-4-amine] here?
A: > 16 µM

Q: And the IC50 ([2]; MTT, 0 to 50 μM)?
A: > 50 µM

Q: And the melting point?
A: 89 to 92 °C

Q: Which IC50 (human IDO1) does the source give for `COCCOc1cc2ncnc(Nc3cccc(-c4cn(Cc5ccccc5Br)nn4)c3)c2cc1OCCOC` [compound e, [6,7-Bis-(2-methoxy-ethoxy)-quinazolin-4-yl]-{3-[1-(2-bromo-benzyl)-1H-[1,2,3]triazol-4-yl]-phenyl}-amine] here?
A: 0.32 ± 0.07 µM

Q: And the IC50 (Hela cells)?
A: > 16 µM

Q: And the melting point?
A: 94 to 97 °C

Q: For `COCCOc1cc2ncnc(Nc3cccc(-c4cn(CCc5ccccc5)nn4)c3)c2cc1OCCOC` [compound c, [6,7-Bis-(2-methoxy-ethoxy)-quinazolin-4-yl]-[3-(1-phenethyl-1H-[1,2,3]triazol-4-yl)-phenyl]-amine], which IC50 (human IDO1) is on record?
A: 47.1 ± 33.2 µM

Q: And the IC50 (Hela cells)?
A: > 16 µM

Q: What about the melting point of the same compound?
A: 109 to 112 °C
